Measured values: patent publication US9850219B1, “Phenothiazine derivatives and methods of use thereof” (Acenda Pharma, Inc., priority 2016, dated 2017)

Experiments:
MCF7 = experiment: Cytotoxicity, sulforhodamine B (SRB) assay, MCF7; type: cell-based, human; conditions: MCF7, Breast, 48 h
Text: (§1) Human non-small cell lung cancer (NSCLC) cell lines (e.g., A549, H441GL and H1299), colon cancer cell lines (e.g., HCT116 and DLD1), breast cancer cell lines (e.g., MCF7 and MDA-MB-231), and pancreatic cancer cell lines (e.g., PANC-1 and SUIT-2) were used in cytotoxicity studies. These NSCLC cell lines have intrinsic resistance to epidermal growth factor receptor (EGFR) inhibitors, e.g., gefitinib. A549 and H441GL are EGFR-wild type adenocarcinoma cell lines. H1299 is an EGFR-wild type large cell carcinoma cell line. HCT116 and DLD1 are metastatic colon cell lines. MCF7 is a hormone-responsive breast cancer cell line. MDA-MB-231 is a triple-negative breast cancer cell line. PANC-1 is a metastatic adenocarcinoma cell line. SUIT-2 is a pancreatic ductal adenocarcinoma cell line.
(§2) All cell lines were grown and maintained in RPMI medium supplemented with 10% fetal bovine serum (FBS, Invitrogen), 2 mM L-glutamine, 100 U/mL penicillin, and 100 μg/mL streptomycin. For cell the culture experiment, stock solution (10 mM) of each test compound was dissolved in dimethyl sulfoxide (DMSO; Sigma).
(§3) Cells were plated in 96-well plates at a density of 2000 cells per well in triplicate. The cells in each well were treated on the third day (to ensure proper plating efficiency and vitality) with different concentrations (0-50 μM) of each test compound for 48 h.
(§4) Cell viability was assessed using the sulforhodamine B (SRB) assay. The medium was discarded, and the adherent cells were fixed by 100 μL of cold 10% trichloroacetic acid (w/v) in each well for 1 h at 4° C. After fixation, cells were stained with 100 μL/well of 0.4% (w/v, in 1% acetic acid) SRB solution for 30 min at room temperature, and then washed 5 times with 1% acetic acid. After air-drying, 100 μL of 10 mM Tris base was added to each well and the absorbance was read at 530 nm. Cytotoxicity is expressed as the percent of cells in drug treated wells relative to number of cells in the solvent only control (set to 100%). Each experiment was performed independently in triplicate and cytotoxicity IC50 value of each test compound was calculated from cytotoxicity data obtained at various concentrations.

H441GL = experiment: Cytotoxicity, sulforhodamine B (SRB) assay, H441GL; type: cell-based, Human; conditions: 48 h, NA indicates no activity
Text: as §1, with “These NSCLC cell lines have intrinsic resistance to epidermal growth factor receptor (EGFR) inhibitors, e.g., gefitinib.” left out
as §2, §3, §4

lung cancer cells = experiment: Cytotoxicity SRB assay, summary of Table 2; type: cell-based, Human; conditions: summary in words of Table 2
Text: as §1, §3, §4
NA indicates no activity.

PANC-1 = experiment: Cytotoxicity, sulforhodamine B (SRB) assay, PANC-1; type: cell-based, human; conditions: PANC-1, Pancreas, 48 h, NA = no activity
Text: as §1, §2, §3, §4

A549 = experiment: Cytotoxicity, sulforhodamine B (SRB) assay, A549; type: cell-based, Human; conditions: A549, 48 h, NA indicates no activity
Text: as §1, with “These NSCLC cell lines have intrinsic resistance to epidermal growth factor receptor (EGFR) inhibitors, e.g., gefitinib.” left out
as §2, §3, §4

SUIT-2 = experiment: Cytotoxicity, sulforhodamine B (SRB) assay, SUIT-2; type: cell-based, human; conditions: SUIT-2, Pancreas, 48 h
Text: as §1, §2, §3, §4

H1299 = experiment: Cytotoxicity, sulforhodamine B (SRB) assay, H1299; type: cell-based; conditions: Homo sapiens, NCI-H1299, H1299, 48 h
Text: as §1, with “These NSCLC cell lines have intrinsic resistance to epidermal growth factor receptor (EGFR) inhibitors, e.g., gefitinib.” left out
as §2, §3, §4

MDA-MB-231 = experiment: Cytotoxicity, sulforhodamine B (SRB) assay, MDA-MB-231; type: cell-based, human; conditions: MDA-MB-231, Breast, 48 h
Text: as §1, §2, §3, §4

H441GL cells [1] = experiment: Study 2: tumor size in mouse lung cancer model; type: in vivo, NOD/SCID mice; conditions: for Tumor Size [Fold Change from Week 3 (Mean ± SD, n = 4)] Week 3 / Tumor Size [Fold Change from Week 3 (Mean ± SD, n = 4)] Week 9 / Tumor Size [Fold Change from Week 3 (Mean ± SD, n = 4)] Week 13: Study 2, 0.0127 mmol/kg daily, i.p.; for Tumor Size [Fold Change from Week 3 (Mean ± SD, n = 4)] Week 3: Week 3 (baseline, start of treatment)
Protocol: (§5) H441GL cells (1×10^6 cells in 100 μL phosphate-buffered saline/injection) were subcutaneously injected into the right flank of NOD/SCID mice (female, 4-6 weeks old). Mice were allowed 2 weeks for tumor growth. On the first day of Week 3 post injection, tumor-bearing mice were randomly divided into control group (DMSO vehicle, intraperitoneal (i.p.) injection) and test compound treatment groups (5 mg/kg/day, 5 days/week, i.p. injection). Over the period of 10 weeks, tumorigenesis in both groups was measured using a caliper on a weekly basis. The change in tumor size was expressed as in fold change from Week 3. In this study body weight of each mouse was also recorded at the end of each study week.
In this study, the daily dose was 0.0127 mmol/kg instead of 5 mg/kg.

DLD1 = experiment: Cytotoxicity, sulforhodamine B (SRB) assay, DLD1; type: cell-based, human; conditions: DLD1, Colon, 48 h
Text: as §1, §2, §3, §4

HCT116 = experiment: Cytotoxicity, sulforhodamine B (SRB) assay, HCT116; type: cell-based, human; conditions: HCT116, Colon, 48 h
Text: as §1, §2, §3, §4

H441GL cells [2] = experiment: Study 1: tumor size in mouse lung cancer model; type: in vivo, NOD/SCID mice; conditions: Study 1, 5 mg/kg/day, 5 days/week, i.p.; for Tumor Size [Fold Change from Week 3 (Mean ± SD, n = 4)] Week 3: Week 3 (baseline, start of treatment)
Protocol: as §5

SMILES	IC50 (MCF7; Homo sapiens)	IC50 (H441GL; Homo sapiens)	inhibition of cell proliferation of lung cancer cells (lung cancer cells)	IC50 (PANC-1; Homo sapiens)	IC50 (A549; Homo sapiens)	IC50 (SUIT-2; Homo sapiens)	IC50 (H1299)	IC50 (MDA-MB-231; Homo sapiens)	IC50 (MCF7)	IC50 (H441GL)	Tumor Size [Fold Change from Week 3 (Mean ± SD, n = 4)] Week 3 (H441GL cells [1])	Tumor Size [Fold Change from Week 3 (Mean ± SD, n = 4)] Week 9 (H441GL cells [1])	Tumor Size [Fold Change from Week 3 (Mean ± SD, n = 4)] Week 13 (H441GL cells [1])	IC50 (PANC-1)	IC50 (A549)	IC50 (DLD1)	IC50 (SUIT-2)	IC50 (HCT116)	IC50 (MDA-MB-231)	other results
COCC(COCC(COCC(COCCOCCOCCOCCOCCOCCOCCOCCOCCN1CCN(CCCN2c3ccccc3Sc3ccc(Cl)cc32)CC1)OC)OC)OC (stereo not drawn) [Compound 25-2a, NDP-[CH2CH2O]n—[CH2CH(OCH3)CH2O]3—CH3]	13.3 µM	17.5 µM	inhibit cell proliferation	35.4 µM	16.7 µM	25.6 µM	16.8 µM	16.8 µM	–	–	–	–	–	–	–	–	–	–	–	–
FC(F)(F)c1ccc2c(c1)N(CCCN1CCNCC1)c1ccccc1S2 [NDT, N-desmethyl trifluoperazine, reference compound]	–	3.9 µM	inhibit cell proliferation	–	6.3 µM	–	6.9 µM	–	–	–	–	–	–	–	–	–	–	–	–	–
COCCOCCOCCOCCOCCOCCN1CCN(CCCN2c3ccccc3Sc3ccc(C(F)(F)F)cc32)CC1 [Compound 4-2b]	–	–	inhibit cell proliferation	–	–	–	–	–	13.2 µM	6.8 µM	1 ± 0 Fold Change	9.4 ± 2.6 Fold Change	23.3 ± 6.2 Fold Change	10.5 µM	21.3 µM	13.9 µM	15.6 µM	6.5 µM	15.8 µM	effect on tumor growth as compared to the vehicle control (H441GL cells [1]; Study 2, 0.0127 mmol/kg daily i.p., by Week 13, in words): largest effect of suppressing tumor growth
COCCOCCOCCOC(=O)N1CCN(CCCN2c3ccccc3Sc3ccc(C(F)(F)F)cc32)CC1 [Compound 5-1b, NDT-CO—O—[CH2CH2O]3—CH3]	–	–	inhibit cell proliferation	–	–	–	–	–	13.6 µM	3.2 µM	–	–	–	18.2 µM	3.8 µM	35.9 µM	21.4 µM	10 µM	21.6 µM	Tumor Size [Fold Change from Week 3 (Mean ± SD, n = 4)] Week 3 (H441GL cells [2]): 1 ± 0 Fold Change; Tumor Size [Fold Change from Week 3 (Mean ± SD, n = 4)] Week 9 (H441GL cells [2]): 28.2 ± 7.4 Fold Change; Tumor Size [Fold Change from Week 3 (Mean ± SD, n = 4)] Week 13 (H441GL cells [2]): 69.8 ± 18.4 Fold Change
COCCOCCOCCOCCOCCOCCOCCOCCOCCOCCOCCOCCN1CCN(CCCN2c3ccccc3Sc3ccc(C(F)(F)F)cc32)CC1 [Compound 4-3b]	–	–	inhibit cell proliferation	–	–	–	–	–	10.2 µM	10.5 µM	1 ± 0 Fold Change	11.7 ± 2.1 Fold Change	30.2 ± 6.2 Fold Change	15.2 µM	11.5 µM	18 µM	22 µM	8.4 µM	13.8 µM	–
COCC(COCC(COCC(CN1CCN(CCCN2c3ccccc3Sc3ccc(Cl)cc32)CC1)OC)OC)OC (stereo not drawn) [Compound 24a, NDP-[CH2CH(OCH3)CH2O]3—CH3]	14.5 µM	19.1 µM	inhibit cell proliferation	12.4 µM	11.7 µM	16.1 µM	14.2 µM	17.6 µM	–	–	–	–	–	–	–	–	–	–	–	–
COCCOCCOCCN1CCN(CCCN2c3ccccc3Sc3ccc(C(F)(F)F)cc32)CC1 [Compound 4-1b]	–	–	inhibit cell proliferation	–	–	–	–	–	13.1 µM	10.5 µM	–	–	–	20 µM	26.3 µM	8 µM	13.3 µM	6.5 µM	14.7 µM	–
COCC(COCC(COCC(COCCOCCOCCN1CCN(CCCN2c3ccccc3Sc3ccc(Cl)cc32)CC1)OC)OC)OC (stereo not drawn) [Compound 25-1a, NDP-[CH2CH2O]n—[CH2CH(OCH3)CH2O]3—CH3]	14.6 µM	13.3 µM	inhibit cell proliferation	16.4 µM	12.7 µM	13 µM	13.1 µM	12.7 µM	–	–	1 ± 0 Fold Change	12.3 ± 2.0 Fold Change	31.5 ± 5.4 Fold Change	–	–	–	–	–	–	–
COCCOCCOCCOCCOCCOCCOCCOCCOCCOCCOCCOCCOC(=O)N1CCN(CCCN2c3ccccc3Sc3ccc(Cl)cc32)CC1 [Compound 5-3a, NDP-CO—O—[CH2CH2O]12—CH3]	–	–	inhibit cell proliferation	–	–	–	–	–	6.5 µM	3 µM	–	–	–	5 µM	2.7 µM	–	11.3 µM	–	8.9 µM	Tumor Size [Fold Change from Week 3 (Mean ± SD, n = 4)] Week 3 (H441GL cells [2]): 1 ± 0 Fold Change; Tumor Size [Fold Change from Week 3 (Mean ± SD, n = 4)] Week 9 (H441GL cells [2]): 23.7 ± 3.4 Fold Change; Tumor Size [Fold Change from Week 3 (Mean ± SD, n = 4)] Week 13 (H441GL cells [2]): 53.9 ± 10.1 Fold Change
